Source: ChEMBL document CHEMBL5120927, “LEGO-Lipophosphonoxins: A Novel Approach in Designing Membrane Targeting Antimicrobials” (J Med Chem, 2022)

Experiments:
Staphylococcus aureus [1] = experiment: Antibacterial activity against Staphylococcus aureus ATCC 29213 = CCM 4223 assessed as inhibition of bacterial growth incubated for 24 hrs in presence of BSA by microdilution assay; type: functional
Enterococcus faecalis = experiment: Antibacterial activity against Enterococcus faecalis ATCC 29212 = CCM 4224 assessed as inhibition of bacterial growth incubated for 24 hrs by microdilution assay; type: functional
[2] = Cytotoxicity against human HepG2 cells assessed as reduction in cell viability; type: toxicity, cell-based
Escherichia coli [3] = experiment: Antibacterial activity against multidrug-resistant Escherichia coli CE5556 expressing CTX-M-15 assessed as reduction in microbial growth incubated for 24 hrs by microdilution assay; type: functional
Staphylococcus aureus [4] = experiment: Antibacterial activity against methicillin resistant Staphylococcus aureus 4591/A assessed as reduction in microbial growth incubated for 24 hrs by microdilution assay; type: functional
[5] = test system: Staphylococcus epidermidis; experiment: Antibacterial activity against Staphylococcus epidermidis CCM 7221 assessed as inhibition of bacterial growth incubated for 24 hrs by microdilution assay; type: functional
Escherichia coli [6] = experiment: Antibacterial activity against Escherichia coli ATCC 25922 = CCM 3954 assessed as inhibition of bacterial growth incubated for 24 hrs in presence of BSA by microdilution assay; type: functional
Enterococcus faecium = experiment: Antibacterial activity against vancomycin resistant Enterococcus faecium 419/ANA assessed as reduction in microbial growth incubated for 24 hrs by microdilution assay; type: functional
Staphylococcus aureus [7] = experiment: Antibacterial activity against Staphylococcus aureus ATCC 29213 = CCM 4223 assessed as inhibition of bacterial growth incubated for 24 hrs by microdilution assay; type: functional
[8] = Hemolytic activity in human RBC assessed as haemoglobin release measured after 3 hr; type: toxicity, cell-based, Erythrocyte; conditions: red blood cells (erythrocytes)
Pseudomonas aeruginosa [9] = experiment: Antibacterial activity against multidrug-resistant Pseudomonas aeruginosa assessed as reduction in microbial growth incubated for 24 hrs by microdilution assay; type: functional
Pseudomonas aeruginosa [10] = experiment: Antibacterial activity against Pseudomonas aeruginosa ATCC 27853 = CCM 3955 assessed as inhibition of bacterial growth incubated for 24 hrs by microdilution assay; type: functional
Escherichia coli [11] = experiment: Antibacterial activity against Escherichia coli ATCC 25922 = CCM 3954 assessed as inhibition of bacterial growth incubated for 24 hrs by microdilution assay; type: functional
[12] = Gradient chromatographic hydrophobicity index of the compound at pH 3.7 by HPLC analysis; type: ADME

| Structure (SMILES) | MIC (Staphylococcus aureus [1]) [µg/mL] | MIC (Enterococcus faecalis) [µg/mL] | CC50 [2] [µM] | MIC (Escherichia coli [3]) [µg/mL] | MIC (Staphylococcus aureus [4]) [µg/mL] | MIC [5] [µg/mL] | MIC (Escherichia coli [6]) [µg/mL] | MIC (Enterococcus faecium) [µg/mL] | MIC (Staphylococcus aureus [7]) [µg/mL] | HC50 at 3 h [8] [µg/mL] | MIC (Pseudomonas aeruginosa [9]) [µg/mL] | MIC (Pseudomonas aeruginosa [10]) [µg/mL] | MIC (Escherichia coli [11]) [µg/mL] | CHI [12] |
| --- | --- | --- | --- | --- | --- | --- | --- | --- | --- | --- | --- | --- | --- | --- |
| CCCCCCCOP(=O)(CCN(CCCN)CCCN)OCCCCCCCOP(=O)(CCN(CCCN)CCCN)OCCCCCCC.Cl.Cl.Cl.Cl.Cl.Cl (centres undefined) | 1 | 4 | 89.5 | 2 | 1 | 0.5 | 1 | 64 | 1 | 287 | 8 | 16 | 8 | 33.9 |
| CCCCCCCCOP(=O)(CCN(CCN)CCN)OCCCCCCOP(=O)(CCN(CCN)CCN)OCCCCCCCC.Cl.Cl.Cl.Cl.Cl.Cl (centres undefined) | 5 | 1 | 80.6 | 1 | 0.5 | 0.5 | 1 | 4 | 0.5 | 79 | 2 | 2 | 1 | 43.2 |
| CCCC/C=C\CCOP(=O)(CCN(CCCNC(=N)N)CCCNC(=N)N)OCCCCCCOP(=O)(CCN(CCCNC(=N)N)CCCNC(=N)N)OCC/C=C\CCCC.Cl.Cl.Cl.Cl.Cl.Cl (centres undefined) | 0.2 | 8 |  | 2 | 1 | 1 | 0.5 | 32 | 1 | 169 | 16 | 16 | 4 | 333 |
| CC(C)COP(=O)(CCN(CCCN)CCCN)OCCCCCCCCOP(=O)(CCN(CCCN)CCCN)OCC(C)C.Cl.Cl.Cl.Cl.Cl.Cl (centres undefined) | > 128 | > 128 |  | > 128 | > 128 | 32 | > 128 | > 128 | > 128 | > 1000 | > 128 | > 128 | > 128 | 25.2 |
| Cl.Cl.Cl.Cl.Cl.Cl.NCCCN(CCCN)CCP(=O)(OCCCOP(=O)(CCN(CCCN)CCCN)OCC1CCCC1)OCC1CCCC1 (centres undefined) | > 128 | > 128 |  | > 128 | > 128 | > 128 | > 128 | > 128 | > 128 | > 1000 | > 128 | > 128 | > 128 | 5 |
| CCCCC/C=C\CCCOP(=O)(CCN(CCCN)CCCN)OCCCCCCOP(=O)(CCN(CCCN)CCCN)OCCC/C=C\CCCCC.Cl.Cl.Cl.Cl.Cl.Cl (centres undefined) | 1 | 1 |  | 1 | 0.5 | 0.5 | 1 | 2 | 0.5 | 43 | 2 | 2 | 0.5 | 40.6 |
| CC(C)COP(=O)(CCN(CCCN)CCCN)OCCCCCCCCCCOP(=O)(CCN(CCCN)CCCN)OCC(C)C.Cl.Cl.Cl.Cl.Cl.Cl (centres undefined) | 16 | 64 |  | 128 | 16 | 8 | > 128 | 128 | 32 | > 500 | 64 | 128 | > 128 | 35 |
| CCC/C=C\CCOP(=O)(CCN(CCCN)CCCN)OCCCCCOP(=O)(CCN(CCCN)CCCN)OCC/C=C\CCC.Cl.Cl.Cl.Cl.Cl.Cl (centres undefined) | 64 | > 128 |  | > 128 | 32 | 128 | 128 | > 128 | 32 | > 250 | > 128 | > 128 | 128 | 28.2 |
| Cl.Cl.Cl.Cl.Cl.Cl.NCCCN(CCCN)CCP(=O)(OCCCCCCOP(=O)(CCN(CCCN)CCCN)OCCCC1CCCCC1)OCCCC1CCCCC1 (centres undefined) | 1 | 2 |  | 1 | 1 | 0.5 | 0.5 | 16 | 1 | 183 | 4 | 4 | 1 | 36.4 |
| CCCC/C=C\CCOP(=O)(CCN(CCCN)CCCN)OCCCOP(=O)(CCN(CCCN)CCCN)OCC/C=C\CCCC.Cl.Cl.Cl.Cl.Cl.Cl (centres undefined) | 32 | 128 |  | 128 | 16 | 8 | 128 | > 128 | 16 | > 200 | 128 | 64 | 128 | 31.3 |
| CC/C=C\CCCOP(=O)(CCN(CCCN)CCCN)OCCCCCCOP(=O)(CCN(CCCN)CCCN)OCCC/C=C\CC.Cl.Cl.Cl.Cl.Cl.Cl (centres undefined) | 16 | 128 |  | 64 | 16 | 4 | 128 | > 128 | 8 | > 200 | > 128 | > 128 | 64 | 2.4 |
| CCCCCOP(=O)(CCN(CCCN)CCCN)OCCCCCCCCCCOP(=O)(CCN(CCCN)CCCN)OCCCCC.Cl.Cl.Cl.Cl.Cl.Cl (centres undefined) | 8 | 32 |  | 128 | 2 | 1 | > 128 | 128 | 2 | 159 | 8 | 16 | 2 | 31.3 |
| CCCCC/C=C\CCCOP(=O)(CCN(CCCN)CCCN)OCCCOP(=O)(CCN(CCCN)CCCN)OCCC/C=C\CCCCC.Cl.Cl.Cl.Cl.Cl.Cl (centres undefined) | 2 | 2 |  | 1 | 1 | 1 | 2 | 8 | 1 | 271 | 2 | 2 | 1 | 39.8 |
| CCCCCCCCCCOP(=O)(CCN(CCCN)CCCN)OCCCCCCOP(=O)(CCN(CCCN)CCCN)OCCCCCCCCCC.Cl.Cl.Cl.Cl.Cl.Cl (centres undefined) | 0.2 | 1 |  | 1 | 0.5 | 0.5 | 1 | 1 | 1 | 16 | 2 | 1 | 1 | 44 |
